Reference: patent US10842765B2, “Methods of reducing or preventing oxidation of small dense ldl or membrane polyunsaturated fatty acids” (Amarin Pharmaceuticals Ireland Limited, priority 2016, dated 2020)

Experiments:
human LDL = assay: Copper-induced unfractionated LDL oxidation, TBARS, Example 7; format: biochemical; conditions: each agent 10.0 μM; 1 hour
[1] = test system: small dense LDL (sdLDL) isolated from human subjects; assay: Glucose-induced sdLDL oxidation (MDA/TBARS), Example 10; format: biochemical; conditions: 10 μM; glucose 200 mg/dL; 1 hr
Procedure: Vitamin E (α-tocopherol) purchased from Sigma-Aldrich was prepared in ethanol at 1.0 mM (ε=3.06×10^4 M^−1 cm^−1 at 294 nm) prior to experimental use. Test compounds were further diluted in ethanol or aqueous buffer as needed. Phosphate Buffered Saline (PBS) purchased from Sigma-Aldrich was prepared in double distilled water at 10 mM (138 mM NaCl, 2.7 mM KC, pH 7.4). Glucose prepared in PBS was added to test samples to achieve a final concentration of 11.0 mM (200 mg/dL).
LDL and sdLDL were isolated from the plasma of healthy volunteers by iodixanol density gradient ultracentrifugation and adjusted to a final apolipoprotein concentration of 10 mg/mL. […] Sample aliquots were incubated at 100° C. for 30 minutes and then assayed for the formation of thiobarbituric acid-reactive substances (TBARS), having a molar absorptivity (ε) value of 1.56×10^5 M^−1 cm^−1 at 532 nm and were derived principally from the reaction of thiobarbituric acid with malondialdehyde (MDA). Lipid oxidation was measured by the colorimetric detection of malondialdehyde (MDA), a marker of oxidative stress.
Data were presented as mean±SD for (n) separate samples or experiments. Differences between groups were analyzed using the unpaired, two-tailed Student's t-test (for comparisons between only two groups) or ANOVA followed by Student-Newman-Keuls multiple comparisons post hoc analysis (for comparisons between three or more groups). Only differences with probability values less than 0.05 were considered significant.

HMG-CoA reductase = biological target: T1, HMG-CoA reductase (Homo sapiens, UniProt P04035); conditions: primary pharmacokinetic studies; hepatic cytochrome P450 metabolism; cited from earlier work
T1 sequence (P04035 1-888): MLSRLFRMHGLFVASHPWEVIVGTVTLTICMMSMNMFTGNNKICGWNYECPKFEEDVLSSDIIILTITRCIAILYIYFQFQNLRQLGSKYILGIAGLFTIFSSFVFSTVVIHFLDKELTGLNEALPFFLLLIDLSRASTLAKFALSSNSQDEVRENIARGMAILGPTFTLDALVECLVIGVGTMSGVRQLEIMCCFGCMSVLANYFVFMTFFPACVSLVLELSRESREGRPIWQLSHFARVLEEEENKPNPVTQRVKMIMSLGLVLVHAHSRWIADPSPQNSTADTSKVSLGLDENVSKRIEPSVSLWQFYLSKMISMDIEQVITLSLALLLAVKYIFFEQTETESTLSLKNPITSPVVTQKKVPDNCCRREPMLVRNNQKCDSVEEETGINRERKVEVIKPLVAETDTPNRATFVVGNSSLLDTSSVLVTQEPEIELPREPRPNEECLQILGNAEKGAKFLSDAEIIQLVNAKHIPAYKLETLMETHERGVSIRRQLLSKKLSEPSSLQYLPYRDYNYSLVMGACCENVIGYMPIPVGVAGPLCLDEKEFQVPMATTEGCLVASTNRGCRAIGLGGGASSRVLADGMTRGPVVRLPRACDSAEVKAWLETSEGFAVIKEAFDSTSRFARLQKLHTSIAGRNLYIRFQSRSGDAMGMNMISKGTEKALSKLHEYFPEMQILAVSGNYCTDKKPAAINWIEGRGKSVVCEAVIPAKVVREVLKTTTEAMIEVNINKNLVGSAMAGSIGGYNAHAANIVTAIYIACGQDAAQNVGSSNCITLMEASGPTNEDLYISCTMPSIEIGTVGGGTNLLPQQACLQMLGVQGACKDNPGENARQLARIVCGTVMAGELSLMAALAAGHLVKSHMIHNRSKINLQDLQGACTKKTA

human sdLDL [2] = assay: Copper-induced sdLDL oxidation, TBARS, Example 7; format: biochemical; conditions: each agent 10 μM; 1 hr
Procedure: Samples were prepared at 100 μg/mL sdLDL and incubated with EPA or DHA (10.0 μM each) for 30 minutes prior to initiating lipid oxidation using 10 μM CuSO4. Samples were maintained at 37° C. in a shaking water bath for 1 hour. Lipid oxidation was measured by colorimetric assay of TBARS formation and expressed as molar equivalents of MDA.
An experiment to study the antioxidant effect of EPA in LDL and small dense LDL (“sdLDL”) was performed. LDL and sdLDL were isolated from the plasma of healthy volunteers by iodixanol density gradient ultracentrifugation, and adjusted to a final apolipoprotein concentration of 2 mg/mL. […] Lipid oxidation was initiated with 10 μM CuSO4 and monitored by the colorimetric detection of thiobarbituric acid reactive substances (TBARS) for 1 hr. Vitamin E was also incubated with sample aliquots as a positive control.

unfractionated LDL = assay: Copper-induced unfractionated LDL oxidation, TBARS, Example 6; format: biochemical, human; conditions: 1.0 μM to 10.0 μM; data not shown
Procedure: All test compounds were further diluted in ethanol or aqueous buffer as needed. Venous blood was collected from healthy volunteers into vacutainer tubes containing sodium EDTA. […] Plasma and lipoprotein fractions were maintained at 4° C. and protected from excessive exposure to light. Prior to oxidation experiments, EDTA was removed from the lipoprotein fraction using PD-10 desalting columns (GE Healthcare, Piscataway N.J.). After equilibration of the column with phosphate buffered saline (PBS), 2.5 mL of the lipoprotein fraction was loaded on the column and the flow-through discarded. The lipoprotein was then eluted with 3 mL of PBS. The LDL fractions were further diluted with PBS to obtain a 100 μg/mL apoB100 concentration. […] Differences between groups were analyzed using the two-tailed, Student's t-test (for comparisons between only two groups) or ANOVA followed by Dunnett or Student-Newman-Keuls multiple comparisons post-hoc analysis (for comparisons between three or more groups).

[3] = Glucose-induced membrane lipid peroxidation (LOOH) in lipid vesicles, Example 4; format: biochemical; conditions: 72- and 96-hour time points; 1:30 drug-to-phospholipid mole ratio; glucose
Procedure: An experiment was conducted to test the ability of EPA to interfere with the effects of high glucose on membrane lipid peroxidation and organization in vesicles enriched with PUFAs. […] Vitamin E (α-tocopherol) was also purchased from Sigma-Aldrich and prepared in ethanol at 1.0 mM (ε=3.06×10^4 M^−1 cm^−1 at 294 nm) just prior to experimental use. […] All test compounds were further diluted in ethanol or aqueous buffer as needed. Glucose was prepared in saline buffer (0.5 mM HEPES, 154 mM NaCl, pH 7.3) at 11.0 mM (200 mg/dL). CHOD-iodide color reagent (stock) was prepared, with slight modification, as described by from El-Saadani et al. (J. […] Samples were shell-dried under nitrogen gas and placed under vacuum for 1 h to remove residual solvent. […] Lipid suspensions were then vortexed for 3 min at ambient temperature to form MLVs. All MLV samples were subjected to time-dependent autoxidation by incubating at 37° C. in an uncovered, shaking water bath. This method allows lipid peroxidation to occur gradually without requiring the use of exogenous initiators. Small aliquots (5-100 μL) of each sample were removed, immediately following MLV preparation (0 hour) and after exposing samples to oxidative conditions for 72 or 96 hour, and combined with 1.0 mL of activated CHOD-iodide color reagent. Aliquot volume was reduced with each successive time point to ensure that spectrophotometric readings were within the optimal adsorption range. Test samples were covered and incubated in darkness at room temperature for at least 4 hr. Sample absorbances were then measured against a CHOD blank at 365 nm using a Beckman DU-640 spectrophotometer. The CHOD colorimetric assay is based on the oxidation of iodide (I^−) by lipid hydroperoxide (LOOH) to form triiodide (I3^−), the quantity of which is directly proportional to the amount of LOOH present in the lipid sample. The molar absorptivity (I3^−) of I3^− is 2.46×10^4 M^−1 cm^−1 at 365 nm. […]

human sdLDL [4] = assay: Copper-induced sdLDL oxidation, TBARS after 2 hr, Example 6; format: biochemical; conditions: 1.0 μM to 10.0 μM
Procedure: An experiment to study the antioxidant effect of EPA in small dense […] performed. […] Vitamin E (α-tocopherol) was purchased from Sigma-Aldrich and prepared in ethanol at 1.0 mM (ε=3.06×10^4 M^-1 cm^-1 at 294 nm) just prior to experimental use. All test compounds were further diluted in ethanol or aqueous buffer as needed. Venous blood was collected from healthy volunteers into vacutainer tubes containing sodium EDTA. Plasma was separated by centrifugation at 3000 g for 25 min at 4° C. and adjusted to a density of 1.020 g/mL with KBr. Triglyceride-rich lipoproteins (TGRL) and LDL fractions were then isolated bysequential centrifugation at 70,000 rpm at 4° C. in a Beckman LE-80 ultracentrifuge using a Beckman 50.4Ti rotor (Beckman Coulter, Inc., Fullerton, Calif.). The TGRL fraction (with a relative density of <1.020) was aspirated from the top of the centrifugate and discarded, leaving an LDL-enriched […] relative density of 1.020 to 1.063). […] The sdLDL subfraction was retained for additional experimentation. Plasma and lipoprotein fractions were maintained at 4° C. and protected from excessive exposure to light. […] Differences between groups were analyzed using the two-tailed, Student's t-test (for comparisons between only two groups) or ANOVA followed by Dunnett or Student-Newman-Keuls multiple comparisons post-hoc analysis (for comparisons between three or more groups).

Structure (SMILES)	effect on unfractionated LDL oxidation (human LDL)	inhibition of glucose-induced sdLDL oxidation (in words) [1]	share of circulating HMG-CoA reductase inhibitory activity accounted for by active metabolites (HMG-CoA reductase)	inhibition of sdLDL oxidation (TBARS formation) vs vehicle (human sdLDL [2]) [%]	inhibition of LDL oxidation (unfractionated LDL)	increase of sdLDL oxidation as compared to glucose-treated controls [1] [%]	effect on LOOH formation / lipid peroxidation [3]	inhibition of sdLDL oxidation (human sdLDL [4])
Cc1ccc(C)c(OCCCC(C)(C)C(=O)O)c1 [Gemfibrozil, gemfibrozil]	no significant effect on unfractionated LDL oxidation	did not inhibit glucose-induced sdLDL oxidation						
O=C(O)c1cccnc1 [Niacin, nicotinic acid]	no significant effect on unfractionated LDL oxidation	did not inhibit glucose-induced sdLDL oxidation						
CC(C)c1c(C(=O)Nc2ccccc2)c(-c2ccccc2)c(-c2ccc(F)cc2)n1CC[C@@H](O)C[C@@H](O)CC(=O)O [atorvastatin]	did not have any significant antioxidant activity		approximately 70%	0.1±7				
Cc1c(C)c2c(c(C)c1O)CC[C@@](C)(CCC[C@H](C)CCC[C@H](C)CCCC(C)C)O2 [vitamin E, α-tocopherol]	no significant effect on unfractionated LDL oxidation	failed to inhibit sdLDL oxidation			did not inhibit LDL oxidation at any concentration	63	no significant effect on lipid peroxidation	did not inhibit sdLDL oxidation except at the highest concentration
